Measured values as given in the supplement of paper PMC8612539.

Key:
Enterococcus spp. = assay: minimum inhibitory concentration (MIC)
Method: (§1)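 Broth microdilution MIC (Sensititre BOPO7F bovine plate, CLSI methods) of 19 antimicrobials against field isolates of P. multocida, M. haemolytica, H. somni (deep nasopharyngeal swabs) and E. coli, Enterococcus spp. (rectal swabs) from weaned dairy heifers. Incubation 16-24 h at 35 C. MIC is the lowest concentration preventing visible growth. Values with <= or > lie at the tested range limits. Trimethoprim-sulfamethoxazole is given as the trimethoprim component of a 1:19 mixture.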

Mannheimia haemolytica = assay: minimum inhibitory concentration (MIC)
Method: as §1

[1] = isolate (source animal id): 122
[2] = isolate (source animal id): 123
[3] = isolate (source animal id): 133
[4] = isolate (source animal id): 171
[5] = isolate (source animal id): 183
[6] = isolate (source animal id): 187
[7] = isolate (source animal id): 190
[8] = isolate (source animal id): 211
[9] = isolate (source animal id): 223
[10] = isolate (source animal id): 241
[11] = isolate (source animal id): 252
[12] = isolate (source animal id): 282
[13] = isolate (source animal id): 298
[14] = isolate (source animal id): 320
[15] = isolate (source animal id): 333

Measured: minimum inhibitory concentration

CS(=O)(=O)c1ccc([C@@H](O)[C@@H](CF)NC(=O)C(Cl)Cl)cc1 [Florfenicol]
8 µg/mL: Mannheimia haemolytica; [13] | Mannheimia haemolytica; isolate (source animal id): 304
2 µg/mL: Enterococcus spp.; isolate (source animal id): 2 | Enterococcus spp.; isolate (source animal id): 42 | Enterococcus spp.; isolate (source animal id): 44 | Enterococcus spp.; isolate (source animal id): 88 | Enterococcus spp.; isolate (source animal id): 91 | Enterococcus spp.; isolate (source animal id): 92 | Enterococcus spp.; isolate (source animal id): 111 | Enterococcus spp.; [2] | Enterococcus spp.; [3] | Enterococcus spp.; isolate (source animal id): 158 | Enterococcus spp.; isolate (source animal id): 168 | Enterococcus spp.; isolate (source animal id): 169 | Enterococcus spp.; isolate (source animal id): 181 | Enterococcus spp.; isolate (source animal id): 182 | Enterococcus spp.; [5] | Enterococcus spp.; [6] | Enterococcus spp.; [7] | Enterococcus spp.; isolate (source animal id): 194 | Enterococcus spp.; isolate (source animal id): 195 | Enterococcus spp.; isolate (source animal id): 197 | Enterococcus spp.; [8] | Enterococcus spp.; isolate (source animal id): 214 | Enterococcus spp.; isolate (source animal id): 222 | Enterococcus spp.; [9] | Enterococcus spp.; isolate (source animal id): 228 | Enterococcus spp.; isolate (source animal id): 230 | Enterococcus spp.; isolate (source animal id): 235 | Enterococcus spp.; isolate (source animal id): 236 | Enterococcus spp.; isolate (source animal id): 239 | Enterococcus spp.; [10] | Enterococcus spp.; isolate (source animal id): 244 | Enterococcus spp.; isolate (source animal id): 246 | Enterococcus spp.; isolate (source animal id): 250 | Enterococcus spp.; isolate (source animal id): 268 | Enterococcus spp.; isolate (source animal id): 289 | Enterococcus spp.; isolate (source animal id): 290 | Enterococcus spp.; isolate (source animal id): 296 | Enterococcus spp.; [13] | Enterococcus spp.; isolate (source animal id): 301 | Enterococcus spp.; isolate (source animal id): 331 | Enterococcus spp.; [15] | Mannheimia haemolytica; isolate (source animal id): 18 | Mannheimia haemolytica; isolate (source animal id): 21 | Mannheimia haemolytica; isolate (source animal id): 25 | Mannheimia haemolytica; isolate (source animal id): 43 | Mannheimia haemolytica; isolate (source animal id): 53 | Mannheimia haemolytica; isolate (source animal id): 100 | Mannheimia haemolytica; isolate (source animal id): 107 | Mannheimia haemolytica; isolate (source animal id): 108 | Mannheimia haemolytica; isolate (source animal id): 121 | Mannheimia haemolytica; [1] | Mannheimia haemolytica; isolate (source animal id): 142 | Mannheimia haemolytica; isolate (source animal id): 152 | Mannheimia haemolytica; isolate (source animal id): 233 | Mannheimia haemolytica; [10] | Mannheimia haemolytica; [11] | Mannheimia haemolytica; isolate (source animal id): 253 | Mannheimia haemolytica; isolate (source animal id): 260 | Mannheimia haemolytica; isolate (source animal id): 262 | Mannheimia haemolytica; isolate (source animal id): 287 | Mannheimia haemolytica; isolate (source animal id): 293 | Mannheimia haemolytica; isolate (source animal id): 313 | Mannheimia haemolytica; isolate (source animal id): 321 | Mannheimia haemolytica; isolate (source animal id): 324 | Mannheimia haemolytica; isolate (source animal id): 326 | Mannheimia haemolytica; isolate (source animal id): 328 | Mannheimia haemolytica; isolate (source animal id): 329 | Mannheimia haemolytica; [15] | Mannheimia haemolytica; isolate (source animal id): 335 | Mannheimia haemolytica; isolate (source animal id): 338
0.5 µg/mL: Mannheimia haemolytica; isolate (source animal id): 149 | Mannheimia haemolytica; isolate (source animal id): 151 | Mannheimia haemolytica; isolate (source animal id): 154 | Mannheimia haemolytica; isolate (source animal id): 288 | Mannheimia haemolytica; isolate (source animal id): 291 | Mannheimia haemolytica; isolate (source animal id): 306 | Mannheimia haemolytica; isolate (source animal id): 308 | Mannheimia haemolytica; isolate (source animal id): 309
4 µg/mL: Enterococcus spp.; isolate (source animal id): 79 | Enterococcus spp.; [4] | Enterococcus spp.; isolate (source animal id): 175 | Enterococcus spp.; isolate (source animal id): 177 | Enterococcus spp.; isolate (source animal id): 247 | Enterococcus spp.; [11] | Enterococcus spp.; isolate (source animal id): 285 | Enterococcus spp.; isolate (source animal id): 310
1 µg/mL: Enterococcus spp.; [12] | Enterococcus spp.; [14] | Mannheimia haemolytica; isolate (source animal id): 8 | Mannheimia haemolytica; isolate (source animal id): 13 | Mannheimia haemolytica; isolate (source animal id): 27 | Mannheimia haemolytica; isolate (source animal id): 28 | Mannheimia haemolytica; isolate (source animal id): 30 | Mannheimia haemolytica; isolate (source animal id): 31 | Mannheimia haemolytica; isolate (source animal id): 32 | Mannheimia haemolytica; isolate (source animal id): 34 | Mannheimia haemolytica; isolate (source animal id): 36 | Mannheimia haemolytica; isolate (source animal id): 37 | Mannheimia haemolytica; isolate (source animal id): 40 | Mannheimia haemolytica; isolate (source animal id): 41 | Mannheimia haemolytica; isolate (source animal id): 46 | Mannheimia haemolytica; isolate (source animal id): 49 | Mannheimia haemolytica; isolate (source animal id): 50 | Mannheimia haemolytica; isolate (source animal id): 51 | Mannheimia haemolytica; isolate (source animal id): 52 | Mannheimia haemolytica; isolate (source animal id): 55 | Mannheimia haemolytica; isolate (source animal id): 56 | Mannheimia haemolytica; isolate (source animal id): 103 | Mannheimia haemolytica; [4] | Mannheimia haemolytica; isolate (source animal id): 173 | Mannheimia haemolytica; [7] | Mannheimia haemolytica; isolate (source animal id): 192 | Mannheimia haemolytica; isolate (source animal id): 202 | Mannheimia haemolytica; isolate (source animal id): 209 | Mannheimia haemolytica; isolate (source animal id): 237 | Mannheimia haemolytica; isolate (source animal id): 300 | Mannheimia haemolytica; isolate (source animal id): 318 | Mannheimia haemolytica; [14]
> 8 µg/mL: Enterococcus spp.; isolate (source animal id): 35 | Enterococcus spp.; [1] | Enterococcus spp.; isolate (source animal id): 341 | Mannheimia haemolytica; isolate (source animal id): 57 | Mannheimia haemolytica; isolate (source animal id): 112 | Mannheimia haemolytica; isolate (source animal id): 113 | Mannheimia haemolytica; [2] | Mannheimia haemolytica; isolate (source animal id): 126 | Mannheimia haemolytica; [3] | Mannheimia haemolytica; isolate (source animal id): 135 | Mannheimia haemolytica; isolate (source animal id): 138 | Mannheimia haemolytica; isolate (source animal id): 141 | Mannheimia haemolytica; isolate (source animal id): 145 | Mannheimia haemolytica; isolate (source animal id): 159 | Mannheimia haemolytica; isolate (source animal id): 162 | Mannheimia haemolytica; isolate (source animal id): 170 | Mannheimia haemolytica; isolate (source animal id): 172 | Mannheimia haemolytica; isolate (source animal id): 179 | Mannheimia haemolytica; isolate (source animal id): 180 | Mannheimia haemolytica; [5] | Mannheimia haemolytica; isolate (source animal id): 186 | Mannheimia haemolytica; [6] | Mannheimia haemolytica; isolate (source animal id): 188 | Mannheimia haemolytica; isolate (source animal id): 191 | Mannheimia haemolytica; isolate (source animal id): 201 | Mannheimia haemolytica; [8] | Mannheimia haemolytica; isolate (source animal id): 220 | Mannheimia haemolytica; isolate (source animal id): 221 | Mannheimia haemolytica; [9] | Mannheimia haemolytica; isolate (source animal id): 259 | Mannheimia haemolytica; [12] | Mannheimia haemolytica; isolate (source animal id): 299 | Mannheimia haemolytica; isolate (source animal id): 302 | Mannheimia haemolytica; isolate (source animal id): 323
